Test results from US9113641B2, “Probiotic bacteria and regulation of fat storage” (Arla Foods amba, priority 2007, dated 2015).

Experiments:
Format in all cases: cell-based, human
[1] = system: malic enzyme (ME); experiment: Expression of PPARα target gene ME in HCT116 cells (real time PCR); details: 100 μM CLA for 24 h
Procedure: (§1) The human colorectal adenocarcinoma cell lines HCT116 (CCL-247, deposit at ATCC), LoVo (CCL-229, deposit ATCC), HT29 (HTB-38, deposit ATCC) and SW480 (CCL-228, deposit ATCC) were grown and maintained according to supplier's recommendations.
(§2) Conjugated linoleic acid (CLA; 94594) was purchased as a trans-10, cis-12 mix from Sigma. PPARγ and PPARα ligands Troglitazone (5 μM) and WY-14643 (100 μM) were products from Cayman.
(§3) RNA was prepared using the Qiagen RNeasy Mini Kit following the manufacturer's protocol and cDNA was synthesised using the cDNA synthesis kit from Invitrogen according to protocol. Semi-quantitative, SYBR Green based (Applied Biosystems) real time PCR was used to detect transcripts. Forward and reverse primers were mixed at equal concentration and used at a final concentration of 0.2 μM. ADRP Fw: 5′-[…]-3′ (SEQ ID NO:1), Rv: 5′-[…]-3′ (SEQ ID NO:2); Beta-actin Fw: 5′-CCTGGCACCCAGCACAAT-3′ (SEQ ID NO:3), Rv: 5′-[…]-3′ (SEQ ID NO:4); FIAF Fw: 5′-AAAGAGGCTGCCCGAGAT-3′ (SEQ ID NO:5), Rv: 5′-TCTCCCCAACCTGGAACA-3′ (SEQ ID NO:6); ME Fw: 5′-[…]-3′ (SEQ ID NO:7), Rv: 5′-[…]-3′ (SEQ ID NO:8). Each experiment was carried out in sample duplicates. The mRNA levels of each sample were determined in triplicates. Real time PCR was performed using the ABI 7500 System for data acquisition and analysis by using the ABI 7500 System Sequence Detection software. […]

[2] = system: FIAF expression in HCT116 cells; experiment: FIAF expression in HCT116 cells by real time PCR after stimulation with bacteria, media or compounds; details: concentration curve, 100 μM CLA for 6 h and 24 h
Procedure: as §1
Strain F19 was always pre-cultured for 6-8 h at 37° C. on a rotating platform (225 rpm). Pre-cultures were then added to pre-warmed deMan Rogosa Sharpe (MRS) medium (dilution 1:20). The cultures were cultivated overnight prior to use. Bacterial concentration at OD600nm was determined: 1 OD600nm=1×10^8 F19/ml. The required amount of F19 was resuspended in an appropriate volume of the respective pre-warmed medium without antibiotics.
Co-culture was prepared by washing the colonic cells with warm PBS. Cells were incubated with 2×10^7/ml of F19 or with medium alone. The experiment was terminated by thoroughly washing the plates with ice-cold PBS.
As a control, F19 was heat-inactivated by incubating at 80° C. for 30 minutes. […]
RNA was prepared using the Qiagen RNeasy Mini Kit following the manufacturer's protocol and cDNA was synthesised using the cDNA synthesis kit from Invitrogen according to protocol. Semi-quantitative, SYBR Green based (Applied Biosystems) real time PCR was used to detect transcripts. […] The mRNA levels of each sample were determined in triplicates. […]

[3] = system: Adipose differentiation-related protein (ADRP); experiment: Expression of PPARγ target gene ADRP in HCT116 cells (real time PCR); details: 100 μM CLA for 24 h
Procedure: as §1, §2, §3

[4] = system: FIAF expression in HT29 cells, PPARγ incapacitated by siRNA; experiment: FIAF expression in HT29 cells with PPARγ siRNA
Procedure: as §1
RNA was prepared using the Qiagen RNeasy Mini Kit following the manufacturer's protocol and cDNA was synthesised using the cDNA synthesis kit from Invitrogen according to protocol. Semi-quantitative, SYBR Green based (Applied Biosystems) real time PCR was used to detect transcripts. Forward and reverse primers were mixed at equal concentration and used at a final concentration of 0.2 μM. ADRP Fw: 5′-[…]-3′ (SEQ ID NO:1), Rv: 5′-[…]-3′ (SEQ ID NO:2); Beta-actin Fw: 5′-CCTGGCACCCAGCACAAT-3′ (SEQ ID NO:3), Rv: 5′-[…]-3′ (SEQ ID NO:4); FIAF Fw: 5′-AAAGAGGCTGCCCGAGAT-3′ (SEQ ID NO:5), Rv: 5′-TCTCCCCAACCTGGAACA-3′ (SEQ ID NO:6); ME Fw: 5′-[…]-3′ (SEQ ID NO:7), Rv: 5′-[…]-3′ (SEQ ID NO:8). Each experiment was carried out in sample duplicates. The mRNA levels of each sample were determined in triplicates. Real time PCR was performed using the ABI 7500 System for data acquisition and analysis by using the ABI 7500 System Sequence Detection software. Data is presented as mean values with standard errors.
Elimination of PPAR transcripts from HT29 cells was accomplished by Dharmacons readymade siRNA products (SMARTpool Human PPARG). […]

Conjugated linoleic acid [CLA]
Expression of PPARα target gene ME [1]: increased expression
FIAF expression induced by CLA, dose and time dependence [2]: upregulate FIAF expression in a dose and time dependent manner
Expression of PPARγ target gene ADRP [3]: increased expression
FIAF expression when PPARγ is incapacitated by siRNA [4]: no longer enhanced
